Assays:
db/db mice [1] = test: Blood glucose after a single oral dose in fed diabetic db/db mice; type: in vivo, mouse; details: for postprandial blood glucose levels, effect in words: single dose, cytopiloyne 0.1, 0.5 and 2.5 mgkg^−1, glimepiride 2.5 mgkg^−1, diabetic db/db mice; for Blood glucose level: fed db/db mice
Experimental: After 0.5 h, the levels of postprandial blood sugar and insulin from the mice were monitored for additional 4 h. For continued administration, diabetic db/db males were grouped and tube-fed with vehicle, cytopiloyne (0.5 or 2.5 mgkg^−1 day^−1) or glimepiride (2.5 mg kg^−1 day^−1) for the indicated time, while levels of blood sugar, insulin, and glycosylated HbA1c, and glucose tolerance in these mice were determined. To evaluate the prophylaxis of diabetes, diabetes-free db/db mice at 4 weeks of age were tube-fed with vehicle or cytopiloyne (CP, 0.5 mgkg^−1), once a day, for 4 weeks. Unless indicated otherwise, the mice were fasted for 16 h, then Postprandial blood glucose and insulin in these mice were measured.
(§1) Glucose levels in mouse blood samples were measured using an Elite® glucometer (Bayer, Pittsburgh, Pa., USA). Insulin levels in blood samples or islet cell supernatants were determined by ELISA assays (Mercodia, Uppsala, Sweden). The levels of glycosylated HbA1c in mouse blood samples were measured using DCA 2000 analyzer (Bayer, Pittsburgh, Pa., USA).
Diabetic db/db mice aged 6 to 8 weeks were grouped, fasted for 12 h, allowed free access to food for 2 h, and removed from food. One half hour after food removal was set as time 0. Postprandial blood was collected from the tail vein of the mice, tube-fed with vehicle, glimepiride (GLM) at 2.5 mg/kg/day and cytopiloyne (CP) at 0.1, 0.5 and 2.5 mg/kg/day. Blood samples were collected at the indicated time intervals (0, 1, 2 and 4 h). The blood glucose levels were determined using a glucometer. The number of mice tested (n) is indicated in parentheses in the first column.

[2] = tested on: adipocyte protein 2 (aP2); test: Real-time RT-PCR of aP2 mRNA relative to GAPDH in 3T3-L1 cells; type: cell-based, mouse
db/db mice [3] = test: Intraperitoneal glucose tolerance test (IPGTT) in db/db mice; type: in vivo, mouse; details: 2.5 mgkg^−1 day^−1 for 6 weeks, day 42, db/db mice
Experimental: FIGS. 1A-F show the anti-diabetic effects of cytopiloyne in db/db mice during long-term treatment. (A) Chemical structure of cytopiloyne (2-β-D-glucopyranosyloxy-1-hydroxytrideca-5,7,9,11-tetrayne). (B) Four groups of 6-to-8-week-old diabetic db/db mice were tube-fed with vehicle, cytopiloyne (CP, 0.5 and 2.5 mgkg^−1 day^−1) or glimepiride (GLM, 2.5 mgkg^−1 day^−1) from 0 to 42 days post-treatment. Blood glucose (BG) levels in these mice were measured. (C) Blood insulin levels from the mice of FIG. 1B. (D) IPGTT was performed in the db/db mice of FIG. 1B on day 0, 28 and 42, and blood glucose levels were monitored for 3.5 h. (E) The percentage of glycosylated HbAlc of whole blood from the mice of FIG. 1B on day 0 and 42. (F) Pancreata of 8- and 16-week-old db/db males, which had received the same treatment as FIG. 1B for 2 (images a-h) and 10 (images i-p) weeks, were stained with hematoxylin and eosin (H&E, images a, c, e, g, i, k, m and o) or hematoxylin and anti-insulin (H&I, images b, d, f, h, j, l, n and p). […] Results from 3 independent experiments are expressed as mean±SEM, and P<0.05 was considered to be statistically significant (*). […]
Male db/db mice were administered either vehicle, cytopiloyne at 0.5 and 2.5 mgkg^−1 day^−1 or glimepiride at 2.5 mgkg^−1 day^−1 for the indicated time. […] The levels of blood sugar were monitored from −0.5 to 3 h after glucose administration.

[4] = tested on: rat pancreatic islet cells; test: Insulin release from rat pancreatic islets (ELISA); type: cell-based
Experimental: FIGS. 3A-C show cytopiloyne-mediated insulin release depends on pancreatic islet cells. (A) Rat pancreatic islet cells were incubated with glucose-free KRB buffer containing vehicle or cytopiloyne at 1.5, 3, 7, 14, 28 and 42 μM (FIG. 3A-i). Similarly, rat pancreatic islet cells were incubated with KRB buffer containing vehicle, glimepiride (GLM, 10 μM) or cytopiloyne at 1.5, 3, 7, 14, 28 and 42 μM in the presence of 3.3 mM glucose (LG, FIG. 3A-ii) or 16.7 mM glucose (HG, FIG. 3A-iii). The insulin levels were determined using an insulin ELISA kit. The data presented as mean±SEM of 3 independent experiments. (B) Fed C57BL mice, which had already received an injection of STZ, were administered with an oral dose of vehicle, cytopiloyne (CP, 0.1, 0.5 and 2.5 mgkg^−1), and an intraperitoneal injection of insulin (Ins, 2.5 IUkg^−1). Blood sugar levels in the STZ-treated mice were determined using a glucometer. (C) C57BL mice, which had already received STZ, were orally administered with a single dose of vehicle, cytopiloyne (CP, 0.5 and 2.5 mgkg^−1), glimepiride (GLM, 2.5 mgkg^−1), or metformin (60 mgkg^−1), followed by an intraperitoneal injection with insulin (Ins). Blood sugar levels in the STZ-treated mice were determined using a glucometer. All the results from 3 independent experiments are expressed as mean±SEM, and P<0.05 was considered to be statistically significant (*). The number of mice (n) is indicated in parentheses.
as §1
Pancreatic islets (10 isletsml^−1) from fasted male Wistar rats were incubated with KRB buffer containing vehicle (1 μl DMSO per ml KRB buffer), glimepiride or cytopiloyne in the absence or presence of glucose for 30 min. The KRB buffer was then collected for ELISA assays.

[5] = single oral dose 2.5 mg/kg, 0 h
[6] = single oral dose 2.5 mg/kg, 1 h
[7] = single oral dose 2.5 mg/kg, 2 h
[8] = single oral dose 2.5 mg/kg, 4 h

Row | Structure (SMILES) | postprandial blood glucose levels, effect in words (db/db mice [1]) | Blood glucose level (db/db mice [1]; [5]) [mg/dL] | Blood glucose level (db/db mice [1]; [6]) [mg/dL] | Blood glucose level (db/db mice [1]; [7]) [mg/dL] | Blood glucose level (db/db mice [1]; [8]) [mg/dL] | aP2 expression, times of the control ([2]; mouse, 8 days, 10 μM) [times] | glucose tolerance (IPGTT) (db/db mice [3]) | insulin secretion from rat islets ([4]; 16.7 mM glucose KRB, also glucose-free and low glucose media) | insulin secretion in the absence of glucose ([4]; high dose, glucose-free KRB buffer) | insulin release in pancreatic islets, glucose dependence ([4]; low dose (e.g., 3 μM), 0, 3.3 and 16.7 mM glucose) | Blood glucose level (db/db mice [1]; single oral dose 0.1 mg/kg, 0 h) [mg/dL] | Blood glucose level (db/db mice [1]; single oral dose 0.1 mg/kg, 1 h) [mg/dL] | Blood glucose level (db/db mice [1]; single oral dose 0.1 mg/kg, 2 h) [mg/dL] | Blood glucose level (db/db mice [1]; single oral dose 0.1 mg/kg, 4 h) [mg/dL] | Blood glucose level (db/db mice [1]; single oral dose 0.5 mg/kg, 0 h) [mg/dL] | Blood glucose level (db/db mice [1]; single oral dose 0.5 mg/kg, 1 h) [mg/dL] | Blood glucose level (db/db mice [1]; single oral dose 0.5 mg/kg, 2 h) [mg/dL] | Blood glucose level (db/db mice [1]; single oral dose 0.5 mg/kg, 4 h) [mg/dL] | aP2 expression ([2]; 5, 25 and 50 μM, 3T3-L1 cells)
1 | CCC1=C(C)CN(C(=O)NCCc2ccc(S(=O)(=O)NC(=O)N[C@H]3CC[C@H](C)CC3)cc2)C1=O [glimepiride, reference compound] | significantly reduced postprandial blood glucose levels | 378 ± 9 | 237 ± 16 | 178 ± 20 | 187 ± 6 | 31 | – | – | – | – | – | – | – | – | – | – | – | – | –
2 | CC#CC#CC#CC#CCCC(CO)O[C@@H]1O[C@H](CO)[C@@H](O)[C@H](O)[C@H]1O (stereo partly drawn) [cytopiloyne, 2-β-D-glucopyranosyloxy-1-hydroxytrideca-5,7,9,11-tetrayne] | significantly reduced postprandial blood glucose levels | 365 ± 9 | 207 ± 11 | 147 ± 12 | 129 ± 11 | – | improved glucose tolerance in db/db mice to a greater extent than glimepiride | enhanced insulin secretion in high glucose medium | can still stimulate insulin secretion to some extent even in the absence of glucose | simulates insulin release in pancreatic islets in a glucose-dependent manner | 373 ± 6 | 267 ± 12 | 204 ± 17 | 158 ± 18 | 369 ± 27 | 214 ± 15 | 163 ± 8 | 132 ± 11 | little effect on aP2 expression

Reference: patent publication US8575116B1, “Polyacetylenic compounds for protecting against pancreatic islet atrophy” (Academia Sinica, priority 2010, dated 2013)
